Where two headings read alike, the source gives them in different places.
Key:
Menin-MLL = target: T1, Menin-MLL (Homo sapiens, UniProt O00255); assay: Inhibitory activity against Menin-MLL binding (fluorescence polarization); details: 150 nM His-Menin, 15 nM FITC-MLL, 25°C for 60 min
T1 construct: His-Menin (M1-L615 end); purchased BIORTUS BP9210
T1 sequence (O00255 1-615 isoform O00255-1): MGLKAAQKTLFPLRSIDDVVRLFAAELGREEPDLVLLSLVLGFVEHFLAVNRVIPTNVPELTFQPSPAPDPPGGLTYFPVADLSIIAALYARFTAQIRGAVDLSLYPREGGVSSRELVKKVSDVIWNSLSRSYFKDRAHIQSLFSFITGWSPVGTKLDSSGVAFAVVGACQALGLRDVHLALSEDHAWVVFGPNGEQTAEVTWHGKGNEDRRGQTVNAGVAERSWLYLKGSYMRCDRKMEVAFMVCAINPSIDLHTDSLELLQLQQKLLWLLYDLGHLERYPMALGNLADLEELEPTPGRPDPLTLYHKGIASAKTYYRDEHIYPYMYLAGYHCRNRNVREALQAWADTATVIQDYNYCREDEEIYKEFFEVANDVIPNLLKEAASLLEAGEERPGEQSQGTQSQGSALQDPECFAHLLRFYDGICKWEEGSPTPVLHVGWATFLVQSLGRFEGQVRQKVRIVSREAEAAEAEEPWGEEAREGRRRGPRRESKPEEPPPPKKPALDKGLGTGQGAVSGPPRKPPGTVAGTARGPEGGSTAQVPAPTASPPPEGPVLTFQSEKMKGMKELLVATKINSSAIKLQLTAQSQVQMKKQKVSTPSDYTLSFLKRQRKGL
Procedure, shortened: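 His-Menin (M1-L615, 150 nM) preincubated with compound 15 min at 25 °C in HEPES pH 7.5, 50 mM NaCl, 1 mM DTT, 0.01% BSA, then 15 nM FITC-MLL4-43 peptide added for 60 min at 25 °C. Fluorescence polarization read; IC50 from 4-parameter logistic fit, duplicates.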

[1] = tested on: MOLM-13 (carrying MLL-AF9); assay: Inhibition of proliferation of human tumor cells (Alamar Blue, 7 days), MOLM-13; type: cell-based; details: Homo sapiens, MOLM-13 cells (carrying MLL-AF9), method calls the value GI50
Procedure, shortened: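 MV-4-11: IMDM + 10% FBS; KG-1a: IMDM + 20% FBS; MOLM-13: RPMI-1640 + 20% FBS. 3- or 4-fold serial dilutions, duplicates, 7 d at 37°C. Readout Alamar Blue; GI50 vs Day 0 and Day 7 DMSO controls.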

[2] = tested on: MV-4-11 (carrying MLL-AF4); assay: Inhibition of proliferation of human tumor cells (Alamar Blue, 7 days), MV-4-11; type: cell-based; details: Homo sapiens, MV4-11, 168 h, MV-4-11 cells (carrying MLL-AF4), method calls the value GI50
Description: Experimental Example 2: Evaluation of Inhibitory Activity of Compounds Against Proliferation of Human Tumor Cells
• Human acute lymphoblastic leukemia cells MV-4-11, purchased from American Type Culture Collection, Catalog Number: CRL-9591; • Human acute myeloid leukemia cells MOLM-13, purchased from COBIOER BIOSCIENCES CO., LTD, Catalog Number: CBP60678; • Human acute myeloid leukemia cells KG-1a, purchased from American Type Culture Collection, Catalog Number: CCL-246.1; • Inverted Microscope, purchased from Olympus Tokyo; • Countess™ Automated Cell Counter, purchased from Invitrogen, Model: C10281; and • Multilabel Reader, purchased from Bio-Tek, Model: Synergy HT.
MV-4-11 cells were cultured in an IMDM medium containing 10% fetal bovine serum, KG-a cells were cultured in an IMDM medium containing 20% fetal bovine serum, or MOLM-13 cells were cultured in an RPMI-1640 medium containing 20% fetal bovine serum, each supplemented with 100 U·mL^-1 penicillin and 100 µg·mL^-1 streptomycin. These cells were cultured at 37°C with 5% CO2. The suspensions of individual cell lines were prepared in their respective media and seeded into 96-well plates at a density of 4,000 cells/well for MV-4-11 and MOLM-13 cells, or 3,000 cells/well for KG-1a cells. On the day of the experiment, a compound stock solution was diluted in a 3-fold or 4-fold gradient using DMSO. Each gradient-diluted stock solution was then further diluted 250-fold with a complete medium to prepare a series of working solutions at different concentrations. Subsequently, 100 µL of working solution (containing a 2-fold concentration series of the test compound) was added to each well, with duplicate wells set up for each concentration.
Seven days after compound addition (on Day 7), an Alamar Blue assay reagent (MCE, HY-111391 / CS-0040317) was added to measure the fluorescence intensity in each well. Wells containing the cells in the growth medium supplemented with 0.1% DMSO (Day 7) served as high-read control wells. The readouts from the wells containing the cells in the growth medium supplemented with 0.1% DMSO on the day of compound addition (Day 0) served as low-reading control well. GraphPad Prism software was used to calculate the concentration required to inhibit 50% of cell proliferation (GI50), which serves as a cell proliferation inhibition activity index.

[3] = fluorescence polarization, read-out: Menin-MLL IC50

Compound	IC50 (Menin-MLL; [3])	IC50 ([1]; 168 h)	IC50 [2]	IC50 (Menin-MLL; Menin-MLL IC50, fluorescence polarization)	IC50 ([1]; MOLM-13, 168 h)
CNCCCC(C(C)C)N1CC(c2cc(-c3ccc(F)cc3C(=O)N(CC(F)F)C(C)C)c3c(F)nc(C)n3c2)C1 (stereo not drawn) [Example 141, N-(2,2-difluoroethyl)-5-fluoro-2-(1-fluoro-3-methyl-6-{1-[2-methyl-6-(methylamino)hexan-3-yl]azacyclobutan-3-yl}imidazo[1,5-a]pyridin-8-yl)-N-(isopropyl)benzamide]	5.5 nM	5.4 nM	1.1 nM	–	–
CCN(C(=O)c1cc(F)ccc1-c1cc(C2CN(C(C)C3CCN(C(C)=O)CC3)C2)cn2c(C)nc(F)c12)C(C)C (stereo not drawn) [Example 288]	6 nM	55 nM	15 nM	–	–
Cc1nc(F)c2c(-c3ccc(F)cc3C(=O)N3[C@H](C)COC[C@H]3C)cc(C3CN(CC4CCN(C(=O)C5CC5)CC4)C3)cn12 [Example 215]	11 nM	13 nM	6.7 nM	–	–
Cc1nc(F)c2c(-c3ccc(F)cc3C(=O)N3[C@H](C)COC[C@H]3C)cc(C3CN(CC4CCN(C(=O)C(F)F)CC4)C3)cn12 [Example 219]	12 nM	14 nM	12 nM	–	–
CCS(=O)(=O)N[C@H]1CC[C@H](CN2CC(c3cc(-c4ccc(F)cc4C(=O)N4CCC[C@H]4C)c4c(F)nc(C)n4c3)C2)CC1 [Example 187, N-[(1r,4r)-4-{[3-(1-fluoro-8-{4-fluoro-2-[(2R)-2-methylpyrrolidin-1-carbonyl]phenyl}-3-methylimidazo[1,5-a]pyridin-6-yl)azacyclobutan-1-yl]methyl}cyclohexyl]ethan-1-sulfonamide]	–	–	15 nM	16.5 nM	36 nM

Further lines, with some results ahead:

IC50 (Menin-MLL; [3])	IC50 ([1]; 168 h)	IC50 [2]	Compound	IC50 (Menin-MLL; Menin-MLL IC50, fluorescence polarization)	IC50 ([1]; MOLM-13, 168 h)
13 nM	34 nM	6.3 nM	CO[C@H]1CCN(CCC[C@H](C(C)C)N2CC(c3cc(-c4ccc(F)cc4C(=O)N4CCOC[C@H]4C)c4cnn(C)c4c3)C2)C1 [Example 184-2]	–	–
26 nM	36 nM	14 nM	COCC(=O)N1CCC(CN2CC(c3cc(-c4ccc(F)cc4C(=O)N4[C@H](C)COC[C@H]4C)c4c(F)nc(C)n4c3)C2)CC1 [Example 224]	–	–
13 nM	33 nM	13 nM	Cc1nc(F)c2c(-c3ccc(F)cc3C(=O)N3CCOC[C@H]3C)cc(C3CN(CC4CCN(c5cncnc5)CC4)C3)cn12 [Example 266, (3R)-4-{5-fluoro-2-[1-fluoro-3-methyl-6-(1-{[1-(pyrimidin-5-yl)piperidin-4-yl]methyl}azacyclobutan-3-yl)imidazo[1,5-a]pyridin-8yl]benzoyl}-3-methylmorpholine]	–	–
17 nM	64 nM	13 nM	Cc1nc(F)c2c(-c3ccc(F)cc3C(=O)N3CCOC[C@H]3C)cc(C3CN(C(CC[C@H]4CNCCO4)C(C)C)C3)cn12 (stereo partly drawn) [Example 244, (3R)-4-{5-fluoro-2-[1-fluoro-3-methyl-6-(1-{4-methyl-1-[(2S)-morpholin-2-yl]pentan-3-yl}azacyclobutan-3-yl)imidazo[1,5-a]pyridin-8yl]benzoyl}-3-methylmorpholine]	–	–
4.5 nM	5 nM	2 nM	Cc1nc(F)c2c(-c3ccc(F)cc3C(=O)N3[C@H](C)COC[C@H]3C)cc(C3CN([C@@H](C)C4CCOCC4)C3)cn12 [Example 209-2, (3R,5R)-4-[5-fluoro-2-(1-fluoro-3-methyl-6-{1-[(1S)-1-(oxacyclohexan-4-yl)ethyl]azacyclobutan-3-yl}imidazo[1,5-a]pyridin-8-yl)benzoyl]-3,5-dimethylmorpholine]	–	–
59 nM	110 nM	55 nM	COC(=O)N1CCC(CN2CC(c3cc(-c4ccc(F)cc4C(=O)N4CCOC[C@H]4C)c4c(F)nc(C)n4c3)C2)CC1 [Example 259]	–	–
5 nM	47 nM	19 nM	CCC(=O)N1CCC([C@H](C)N2CC(c3cc(-c4ccc(F)cc4C(=O)N4CCOC[C@H]4C)c4c(F)nc(C)n4c3)C2)CC1 [Example 295]	–	–
